Measurements from patent publication US5900434A, “Method for inhibiting the production of interleukin-1 or tumor necrosis factor-α by administering acanthoic acid” (Korea Institute of Science and Technology, priority 1994, dated 1999).

What was measured:
[1] = system: TNF-α production in human monocytes and macrophages; assay: Inhibition of TNF-α production in human monocytes and macrophages (L929 cell lytic assay); type: cell-based; settings: 5 μg/ml or more of acanthoic acid; silica-stimulated; FIG. 3
Description: The monocytes and macrophages obtained in Reference Example 1 (1) were incubated with 0.1 to 100 μg/ml of acanthoic acid for an hour and treated with 100 μg/ml of silica for 48 hours. The culture was centrifuged to obtain supernatant, which was then dialyzed against PBS. The activity of IL-1 in the dialyzate was determined in accordance with the method of Gery described in Cellular Immunology, 64, 293-303(1981) as follows. Human monocytes and macrophages were treated with acanthoic acid in accordance with the same procedures as in Example 1, and the activity of TNF-α was measured by cell lytic assay in accordance with the method of Aggarwal as described in J. Biol. Chem., 260, 2345(1985). TNF-α dependent L929 fibroblasts(ATCC CCLl) were suspended in RPMI 1640 medium containing 5% FBS and added to the wells of 96-well incubation plate in an amount of 3×10^4 cells/well. The plate was incubated at 37° C. for 2 hours to make the cells adhere to the incubation plate. […] Then, 100 μl of 33% acetic acid was added to each of the wells to release the dye, and then the O.D. of sample obtained from each of the wells was determined by using ELISA reader with 570 nm reading filter and 405 nm reference filter. The amount of released dye was calculated from the O.D. value with reference to that of the internal control group, i.e., rHu TNF-α(Genzyme).

[2] = system: O2^- production in human neutrophils; assay: Production of O2^- in human neutrophils (PMA-stimulated); type: cell-based
Description: Normal human peripheral blood was heparin-treated and diluted with equal amount of Hank's balanced salt solution (HBSS: Ca^2+ and Mg^2+ free). The diluted blood was put into a centrifuge tube containing therein Ficoll-Hypaque(Sigma, St. Louis, Mo., U.S.A.) layer having a density of 1.077 piled up on Ficoll-Hypaque layer having a density of 1.119, and then centrifuged at 700×g for 30 minutes to obtain monocytes from the layer between Ficoll-Hypaque layer having a density of 1.077 and serum layer, and neutrophils from the layer between Ficoll-Hypaque layer having a density of 1.077 and that having a density of 1.119. The separated cells were washed twice with 4° C. HBSS(Ca^2+ and Mg^2+ free) and suspended in RPMI 1640 medium(Gibco, Grand Island, N.Y., U.S.A.) containing 10% fetal bovine serum(FBS, Hyclone, Logan, Utah, U.S.A.). The suspensions were added to the wells of 24-well incubation plate(Costar, Cambridge, Mass., U.S.A.) and incubated at 37° C. for 2 hours to obtain monocytes, macrophages and neutrophils. Inflammatory responses are known as a cascade reaction comprising the secretion of various cytokines, e.g., IL-1, from immune cells stimulated by various stimulants; production of phospholipase A2, lysosomal enzyme, reactive oxygen species, etc. by other immune cells stimulated by said cytokines; and damage of tissues induced by the above products(Pruzanski, W. and […]., Immunol. Today, 12, 143(1991)). The ability of acanthoic acid to block the inflammatory reactions was tested by measuring their inhibitory activity to the production of reactive oxygen species, i.e., H2 O2 and O2^-. For the purpose of measuring the amount of produced O2^-, neutrophils suspended in RPMI 1640 medium in a concentration of 1×10^6 cells/800 μl was added to a part of the wells of 24-well plate and 10 μg/ml of superoxide dismutase(SOD, Sigma) was added to the empty wells. The plate was stored at 37° C. for 2 minutes, and cytochrome C(3 mg/ml, Sigma) was added to the wells in a concentration of 100 μl/well. The cells were treated with 10, 20 and 50 μg/ml of acanthoic acid for an hour and reacted at 37° C. for 20 minutes by introducing 10^-7 PMA as a stimulant. The reaction was terminated by adding 1 mM N-ethylmaleimide(Sigma) to the wells and the culture was centrifuged at 1,600×g for 10 minutes to obtain a supernatant. The change of color of the supernatant caused by the reduction of cytochrome C was measured at 550 nm by using a UV-Visible spectrophotometer (Kontron Instrument, Milano, Italy). The amount of produced O2^- was represented by the concentration of SOD which can suppress the reduction of cytochrome C in 1×10^6 cells for 20 minutes, by employing the extinction coefficient of cytochrome C(E550 nm =1.83×10^4 […] cm^-1).

With C=C[C@@]1(C)CC=C2C(CCC3[C@](C)(C(=O)O)CCC[C@@]23C)C1 (single isomer, unassigned; (-)) [acanthoic acid, (-)-pimara-9(11),15-diene-19-oic acid] the “inhibition of production of TNF-α” value [1] was “at least 90%”, the inhibition at 50 µg/mL ([2]; Neutrophil, 50 μg/ml, PMA) was 72% and the activity at 10 µg/mL ([2]; Neutrophil, 20 min, PMA + acanthoic acid 10 μg/ml, PMA = 100, read-out: Amount of produced reactive oxygen species, O2^- (% to the control group)) was 76.8%. The activity at 20 µg/mL ([2]; Neutrophil, 20 min, PMA + acanthoic acid 20 μg/ml, PMA = 100, read-out: Amount of produced reactive oxygen species, O2^- (% to the control group)) was 31.6%, the activity at 50 µg/mL ([2]; Neutrophil, 20 min, PMA + acanthoic acid 50 μg/ml, PMA = 100, read-out: Amount of produced reactive oxygen species, O2^- (% to the control group)) was 28.4% and the “Amount of produced reactive oxygen species, O2^-” value (“Amount” for short) ([2]; PMA + acanthoic acid 10 μg/ml) was 11.9 nM/20 min. For the same molecule, the “Amount” value ([2]; PMA + acanthoic acid 20 μg/ml) was 4.9 nM/20 min and the “Amount” value ([2]; PMA + acanthoic acid 50 μg/ml) was 4.4 nM/20 min.
